Results reported in the supplement of paper PMC10307832.

Legend:
Experiment in all cases: relative viability (nuclei count vs DMSO), 5 days (fraction); higher = more cells survive
[1] = test system: HARA
How it was run: (§1)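 After 5 days of treatment, lung cancer cells in 1536-well plates were fixed and stained in a single step (final 0.05% Triton X-100, 1% formaldehyde, 1 ug/ml Hoechst) and their nuclei counted on 4× images. Treatment had been applied by pin tool the day after seeding as one drug alone or as a fixed anchor-drug dose with five library-drug doses (not always all listed) in √10 steps. Relative viability is the nuclei count of treated wells divided by that of vehicle wells, and values are medians of duplicate plates.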

[2] = test system: LU99A
How it was run: as §1

[3] = test system: NCI-H2405
How it was run: as §1

[4] = test system: EMC-BAC-2
How it was run: as §1

[5] = test system: NCI-H1755
How it was run: as §1

[6] = test system: NCI-H460
How it was run: as §1

[7] = test system: EPLC-272H
How it was run: as §1

[8] = test system: NCI-H647
How it was run: as §1

[9] = test system: ChaGo-K-1
How it was run: as §1

[10] = test system: EKVX
How it was run: as §1

[11] = test system: NCI-H1792
How it was run: as §1

[12] = test system: HCC-44
How it was run: as §1

[13] = test system: NCI-H596
How it was run: as §1

[14] = test system: COR-L 105
How it was run: as §1

[15] = test system: NCI-H1650
How it was run: as §1

[16] = test system: NCI-H1993
How it was run: as §1

[17] = test system: NCI-H1734
How it was run: as §1

[18] = test system: RERF-LC-KJ
How it was run: as §1

[19] = test system: A-427
How it was run: as §1

[20] = test system: NCI-H358
How it was run: as §1

[21] = test system: LK-2
How it was run: as §1

## CN1CCN(CCOc2cc(OC3CCOCC3)c3c(Nc4c(Cl)ccc5c4OCO5)ncnc3c2)CC1 [Saracatinib] + C[C@@H](Oc1cc(-c2cnn(C3CCNCC3)c2)cnc1N)c1c(Cl)ccc(F)c1Cl [Crizotinib] (partner 1 µM)
[1]; first compound 0.02 µM
  relative viability: 1.02
[1]; first compound 0.6325 µM
  relative viability: 0.829
[1]; first compound 2 µM
  relative viability: 0.64
[2]; first compound 0.02 µM
  relative viability: 0.664
[2]; first compound 0.2 µM
  relative viability: 0.377
[2]; first compound 0.6325 µM
  relative viability: 0.487
[2]; first compound 2 µM
  relative viability: 0.39
[3]; first compound 0.02 µM
  relative viability: 0.854
[3]; first compound 0.2 µM
  relative viability: 0.788
[3]; first compound 0.6325 µM
  relative viability: 0.751
[3]; first compound 2 µM
  relative viability: 0.501
[4]; first compound 0.02 µM
  relative viability: 0.701
[4]; first compound 0.2 µM
  relative viability: 0.72
[4]; first compound 0.6325 µM
  relative viability: 0.652
[4]; first compound 2 µM
  relative viability: 0.463
[5]; first compound 0.02 µM
  relative viability: 0.883
[5]; first compound 0.2 µM
  relative viability: 0.536
[5]; first compound 0.6325 µM
  relative viability: 0.779
[5]; first compound 2 µM
  relative viability: 0.662
[6]; first compound 0.02 µM
  relative viability: 0.97
[6]; first compound 0.2 µM
  relative viability: 0.501
[6]; first compound 0.6325 µM
  relative viability: 0.696
[6]; first compound 2 µM
  relative viability: 0.566
[7]; first compound 0.02 µM
  relative viability: 0.96
[7]; first compound 0.2 µM
  relative viability: 0.826
[7]; first compound 0.6325 µM
  relative viability: 0.779
[7]; first compound 2 µM
  relative viability: 0.729
[8]; first compound 0.02 µM
  relative viability: 1.11
[8]; first compound 0.2 µM
  relative viability: 0.707
[8]; first compound 0.6325 µM
  relative viability: 0.704
[8]; first compound 2 µM
  relative viability: 0.411
[9]; first compound 0.02 µM
  relative viability: 1.08
[9]; first compound 0.2 µM
  relative viability: 0.906
[9]; first compound 0.6325 µM
  relative viability: 1.1
[9]; first compound 2 µM
  relative viability: 0.809
[10]; first compound 0.02 µM
  relative viability: 0.927
[10]; first compound 0.2 µM
  relative viability: 0.865
[10]; first compound 0.6325 µM
  relative viability: 0.596
[10]; first compound 2 µM
  relative viability: 0.302
[11]; first compound 0.02 µM
  relative viability: 0.94
[11]; first compound 0.2 µM
  relative viability: 0.922
[11]; first compound 0.6325 µM
  relative viability: 1.15
[11]; first compound 2 µM
  relative viability: 0.684
[12]; first compound 0.02 µM
  relative viability: 0.859
[12]; first compound 0.2 µM
  relative viability: 0.738
[12]; first compound 0.6325 µM
  relative viability: 0.952
[12]; first compound 2 µM
  relative viability: 1.01
[13]; first compound 0.02 µM
  relative viability: 0.727
[13]; first compound 0.2 µM
  relative viability: 0.775
[13]; first compound 0.6325 µM
  relative viability: 0.981
[13]; first compound 2 µM
  relative viability: 0.626
[14]; first compound 0.02 µM
  relative viability: 0.881
[14]; first compound 0.2 µM
  relative viability: 0.763
[14]; first compound 0.6325 µM
  relative viability: 0.459
[14]; first compound 2 µM
  relative viability: 0.252
[15]; first compound 0.02 µM
  relative viability: 1.03
[15]; first compound 0.2 µM
  relative viability: 0.637
[15]; first compound 0.6325 µM
  relative viability: 0.582
[15]; first compound 2 µM
  relative viability: 0.413
[16]; first compound 0.02 µM
  relative viability: 0.832
[16]; first compound 0.2 µM
  relative viability: 0.594
[16]; first compound 2 µM
  relative viability: 0.589
[17]; first compound 0.02 µM
  relative viability: 0.751
[17]; first compound 0.6325 µM
  relative viability: 0.656
[17]; first compound 2 µM
  relative viability: 0.507
[18]; first compound 0.02 µM
  relative viability: 0.81
[18]; first compound 0.2 µM
  relative viability: 0.833
[18]; first compound 0.6325 µM
  relative viability: 0.945
[18]; first compound 2 µM
  relative viability: 0.778
[19]; first compound 0.02 µM
  relative viability: 1.04
[19]; first compound 0.2 µM
  relative viability: 0.604
[19]; first compound 0.6325 µM
  relative viability: 0.837
[19]; first compound 2 µM
  relative viability: 0.926
[20]; first compound 0.02 µM
  relative viability: 0.54
[20]; first compound 0.2 µM
  relative viability: 0.611
[20]; first compound 0.6325 µM
  relative viability: 0.376
[20]; first compound 2 µM
  relative viability: 0.251
[21]; first compound 0.02 µM
  relative viability: 0.253
[21]; first compound 0.2 µM
  relative viability: 0.225
[21]; first compound 0.6325 µM
  relative viability: 0.196
[21]; first compound 2 µM
  relative viability: 0.201
